Tests used:
[1] = Cell viability assay (MTT), normal cells; format: cell-based; conditions: human, MCF-10A normal mammary gland epithelial cells, four-day incubation
Procedure: The impact of novel compounds 10a-o and 13a-e on cell viability was examined using the MCF-10A (human mammary gland epithelial) normal cell line. The MTT test was employed to assess the cell viability of the novel compounds after a four-day incubation with MCF-10A cells ([El-Sherief et al., 2019]; [Ramadan et al., 2020]).
The effects of compounds 10a-o and 13a-e on cell viability were assessed using the human mammary gland epithelial normal cell line (MCF-10A). The MTT assay assessed the cell viability of compounds 10a-o and 13a-e following a four-day incubation with MCF-10A cells ([El-Sherief et al., 2019]; [Ramadan et al., 2020]). Check Supplementary Appendix A for additional information.
4.2. Biological evaluation
4.2.1 Cell Viability assay (MTT assay)
MTT assay was performed to investigate the effect of the synthesized compounds on mammary epithelial cells (MCF-10A). The cells were propagated in medium consisting of Ham's F-12 medium/ Dulbecco's modified Eagle's medium (DMEM) (1:1) supplemented with 10% foetal calf serum, 2 mM glutamine, insulin (10 μg/mL), hydrocortisone (500 ng/mL) and epidermal growth factor (20 ng/mL). Trypsin ethylenediamine tetra acetic acid (EDTA) was used to passage the cells after every 2-3 days. 96-well flat-bottomed cell culture plates were used to seed the cells at a density of 10^4 cells mL-1. The medium was aspirated from all the wells of culture plates after 24 h followed by the addition of synthesized compounds (in 200 μL medium to yield a final concentration of 0.1% (v/v) dimethyl sulfoxide) into individual wells of the plates.
Four wells were designated to a single compound. The plates were allowed to incubate at 37°C for 96 h. Afterwards, the medium was aspirated and 3-[4,5-dimethylthiazol-2-yl]-2,5-diphenyltetrazolium bromide (MTT) (0.4 mg/mL) in medium was added to each well and subsequently incubated for 3 h. The medium was aspirated and 150 μL dimethyl sulfoxide (DMSO) was added to each well. The plates were vortexed followed by the measurement of absorbance at 540 nm on a microplate reader. The results were presented as inhibition (%) of proliferation in contrast to controls comprising 0.1%

tubulin = assay: Tubulin polymerization inhibition assay (Cytoskeleton kit); conditions: for Tub %inh: 30 min, YB-EGY run; for Tub K.Activity: EC = 120, YB-EGY run;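 as to all read-outs here: Cell-free tubulin polymerization read by fluorescent reporter enhancement over a 30 min reaction, with the compound-free kit control taken as 100% activity and inhibition relative to it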
prostatic - PC-3 = assay: Antiproliferative assay (MTT) PC-3; conditions: read-out: Antiproliferative activity IC50 ± SEM (µM) PC-3; PC-3, MTT
breast - MCF-7 = assay: Antiproliferative assay (MTT) MCF-7; conditions: read-out: Antiproliferative activity IC50 ± SEM (µM) MCF-7; MCF-7, MTT
colon - HCT-116 = assay: Antiproliferative assay (MTT) HCT-116; conditions: read-out: Antiproliferative activity IC50 ± SEM (µM) HCT-116; HCT-116, MTT
pancreatic - MDAMB-231 = assay: Antiproliferative assay (MTT) MDAMB-231; conditions: read-out: Antiproliferative activity IC50 ± SEM (µM) MDAMB-231; MDAMB-231, MTT
[2] = tested on: four human cancer cell lines (HCT-116, PC-3, MCF-7, MDAMB-231); assay: Antiproliferative assay, mean of four cell lines (GI50); conditions: Homo sapiens, read-out: GI50 (average IC50)

IC50 (tubulin; read-out: Tubulin inhibition IC50 ± SEM, triplicate for each tested concentration)	IC50 (prostatic - PC-3)	IC50 (breast - MCF-7)	IC50 (colon - HCT-116)	IC50 (pancreatic - MDAMB-231)	IC50 [2]	SMILES	viability at 96 h, 50 µM [1]	Tub %inh (tubulin; conc 0.1 (unit not given))	Tub K.Activity (tubulin; conc 0.1 (unit not given))	Tub %inh (tubulin; conc 1 (unit not given))	Tub K.Activity (tubulin; conc 1 (unit not given))	Tub %inh (tubulin; conc 10 (unit not given))	Tub K.Activity (tubulin; conc 10 (unit not given))	Tub %inh (tubulin; conc 50 (unit not given))	Tub K.Activity (tubulin; conc 50 (unit not given))	Tub %inh (tubulin; conc 100 (unit not given))	Tub K.Activity (tubulin; conc 100 (unit not given))
39.9 ± 1.22 µM						COc1ccc(/C=C/C(=O)c2sc(SCC(=O)Nc3nccs3)nc2C)cc1 [Compound 13e, (E)-2-((5-(3-(4-methoxyphenyl)acryloyl)-4-methylthiazol-2-yl)thio)-N-(thiazol-2-yl)acetamide]	91%	7.07%	111.52	16.4%	100.36	26.3%	88.403	41.7%	69.965	75.9%	28.968
	9 ± 0.6 µM	4 ± 0.2 µM	5 ± 0.3 µM	3 ± 0.1 µM	5 µM	COc1cccc2c1C(=O)c1c(O)c3c(c(O)c1C2=O)C[C@@](O)(C(=O)CO)C[C@@H]3O[C@H]1C[C@H](N)[C@H](O)[C@H](C)O1 [Doxorubicin, reference compound]											
	12 ± 0.9 µM	7 ± 0.3 µM	6 ± 0.3 µM	8 ± 0.4 µM	8 µM	CNC(=O)c1cc(Oc2ccc(NC(=O)Nc3ccc(Cl)c(C(F)(F)F)c3)cc2)ccn1 [Sorafenib, reference compound]											
